Entries after “also recorded” stand apart in the source; their conditions may differ. Read-outs that look alike come from different tables or passages of the source.
How the values were obtained:
[1] = tested on: male CD-1 mice, electrically stimulated ejaculation; assay: electroejaculation test in conscious male mice (bipolar rectal probe); type: in vivo, mouse; details: for Effective Dose / Ejaculation Inhibition % / Max. ejaculation Inhibition / Optimal Dose: male mice; for Effective Dose / Ejaculation Inhibition %: oral; for Ejaculation Inhibition %: at the effective dose; for Max. ejaculation Inhibition / Optimal Dose: subcutaneous injection; for Max. ejaculation Inhibition: at the optimal dose; for Optimal Dose: dose giving max. ejaculation inhibition
Procedure: To investigate the efficacy of delta opioid receptor agonists as a treatment for premature ejaculation, intact conscious male mice were electrically stimulated subsequent to the administration of a delta opioid receptor agonist to determine if a delay in ejaculation was observed when compared to administration of a placebo
Male, CD-1 mice (20-30 g) were housed in groups of ten (10) in Plexiglas® chambers with food and water available before any procedure. Animals were maintained on a 12 hour light/dark cycle in a temperature-controlled animal colony. Studies were carried out in accordance with the Guide for the Care and Use of Laboratory animals as adopted and promulgated by the National Institutes of Health.
Specifically, the bipolar electrode probe is an approximately 5 cm long tube having an outer diameter of approximately 0.25 cm with an inner diameter of approximately 0.08. In the center lumen of the elongated tubular body 12 are embedded cathode 16 and anode 18, which are formed of a conductive material, preferably platinum. The cathode 16 and anode 18 are connected at one end to external power supplying means (not shown). Anode 18 extends at the other end all the way to one extremity of the elongated body 12 and forming an anode terminal 22 at such extremity. Cathode 16 only extends to a middle portion of the elongated body 12 and forming a cathode terminal 20 at such middle portion. The cathode terminal 20 is preferably positioned away from the anode terminal 22, at a distance of about 0.5 cm.
The testing delta opioid receptor agonist (SNC-80) was purchased from Tocris Cookson, Inc., Ellisville, Mo., USA, and dissolved in 5% dextrose injection solution. An equimolar amount of aqueous hydrochloric acid was added when the manufacturer packaged the compound in its base form. The placebo was 5% dextrose alone. Each mouse was injected subcutaneously with […] of the SNC-80 compound or with 10 mg/kg of a placebo. 10 minutes after the injection, the test mouse was subjected to electrostimulation. Ten mice were tested for each dose level, the order of each mouse receiving different doses was blinded and in a random manner.
During the testing the mouse was restrained in a cone bag with rear legs extending from the bag. Excess fecal matter was removed from the rectum and the above-discussed lubricated bipolar electrode was inserted approximately 2.5 cm into the rectum. […] The stimulation regime included 4 stimulating events for each voltage lasting 2 seconds with a rest period of 2 seconds between stimulating events until ejaculation occurred or the terminal voltage of 8 volts was reached. A white coagulum ejaculate from the penis indicates a successful ejaculation.
For the electroejaculation test, dose-response lines were constructed as an accumulated ejaculation at a specified voltage. A minimum of 10 mice was used at each dose level. Each dose response was the average of two to three independent experiments. Students' t-test was used to assess unpaired comparison, with […] indicating significance.
Testing was conducted on mice injected with SNC-80 or a buffer vehicle for the control group. […] Each mouse was subjected to electroejaculation at 40 Hz (starting at 3 volts with a gradual increase to 8 volts by increments of 0.5 volts) approximately 10 minutes after subcutaneous administration of SNC-80 at different doses of 0, 0.1, 0.3 and 1 mg/kg. A minimum of 10 mice were used at each dose level. Each does response was the average of two to three independent experiments±SEM.
To determine if SNC-80 inhibits the ejaculation via specific binding to delta opioid receptor, the effect of SNC-80 on ejaculation was tested against the delta opioid selective antagonist naltrindole (NTI). Subcutaneous injections of a control vehicle (CTL), 0.5 mg/kg SNC-80, 0.5 mg/kg SNC-80 plus 0.1 mg/kg of NTI and 0.1 mg/kg of NTI were administered to the mice. A minimum of 10 mice was utilized for each dose level. […]

[2] = target: μ opioid receptor (Homo sapiens, UniProt P35372); assay: radio-ligand competition binding assay, μ
[3] = target: delta opioid receptor (Homo sapiens, UniProt P41143); assay: radio-ligand competition binding assay, δ
[4] = target: κ opioid receptor (Homo sapiens, UniProt P41145); assay: radio-ligand competition binding assay, κ
[5] = tested on: mouse vas deferens; assay: in vitro inhibition of electrically stimulated contraction of mouse vas deferens in tissue bath
[6] = tested on: mouse vas deferens; details: background statement; cited from earlier work
[7] = radio-ligand competition binding per U.S. Pat. Nos. 5,985,880 and 5,807,858, read-out: δ binding affinity
[8] = radio-ligand competition binding per U.S. Pat. Nos. 5,985,880 and 5,807,858, read-out: κ binding affinity

Compound | Effective Dose [1] [mg/kg] | Ejaculation Inhibition % [1] [%] | EC50 [5] [nM] | Max. ejaculation Inhibition [1] [%] | Optimal Dose [1] [mg/kg] | further results
4-(alpha-R)-alpha-((2S,5R)-4-(Cyclopropylmethyl)-2,5-dimethyl-1-piperazinyl)-3-hydroxybenzyl)-N,N-diethylbenzamide [Example 35] | 0.3 | 60 |  |  |  | 
CCN(CC)C(=O)c1ccc([C@H](c2cccc(O)c2)N2C[C@@H](C)N(Cc3ccc(F)cc3)C[C@@H]2C)cc1 [Example 11, 4-((alpha-R)-alpha-((2S,5R)-2,5-Dimethyl-4-(4-fluorobenzyl)-1-piperazinyl)-3-hydroxybenzyl)-N,N-diethylbenzamide] |  |  | 2.8 | 30 | 5 | Ki [2]: 27.1 nM; Ki [3, 7]: 1.23 nM; Ki [4, 8]: > 100 nM
CCN(CC)C(=O)c1ccc([C@H](c2cccc(O)c2)N2C[C@@H](C)N(Cc3ccccc3)C[C@@H]2C)cc1 [Example 12, 4-((alpha-R)-alpha-((2S,5R)-4-Benzyl-2,5-dimethyl-1-piperazinyl)-3-hydroxybenzyl)-N,N-diethylbenzamide] |  |  | 4.4 | 28 | 5 | Ki [2]: 1.45 nM; Ki [3, 7]: 0.123 nM; Ki [4, 8]: 68.7 nM
CCN(CC)C(=O)c1ccc([C@H](c2cccc(O)c2)N2C[C@@H](C)N(Cc3ccc(C(=O)O)cc3)C[C@@H]2C)cc1 [Example 13, 4-{(2R,5S)-4-[(R)-(4-Diethylcarbamoylphenyl)(3-hydroxyphenyl)methyl]-2,5-dimethylpiperazin-1-ylmethyl)benzoic acid] |  |  | 21.2 | 50 | 5 | Ki [2]: 3470 nM; Ki [3]: 5.69 nM; Ki [4]: > 100 nM
C=CCN1C[C@H](C)N([C@H](c2ccc(C(=O)N(CC)CC)cc2)c2cccc(OCC(=O)O)c2)C[C@H]1C [Example 14, 3-((alpha-R)-alpha-((2S,5R)-4-Allyl-2,5-dimethyl-1-piperazinyl)-4-(diethylamino-carbonyl)benzyl)phenoxyacetic acid] | 0.01 | 45 | 7.2 | 35 | 10 | Ki ([2]; radio-ligand competition binding per U.S. Pat. Nos. 5,985,880 and 5,807,858, read-out: μ binding affinity): 162 nM; Ki [3]: 11.1 nM; Ki [4]: > 100 nM
CCN(CC)C(=O)c1ccc([C@H](c2cccc(OCC(=O)O)c2)N2C[C@@H](C)N(Cc3ccccc3)C[C@@H]2C)cc1 [Example 15, 3-((alpha-R)-alpha-((2S,5R)-4-Benzyl-2,5-dimethyl-1-piperazinyl)-4-(diethylaminocarbonyl)benzyl)phenoxyacetic acid] | 3 | 66 |  |  |  | 
CCN(CC)C(=O)c1cccc([C@H](c2cccc(O)c2)N2C[C@@H](C)N(Cc3cccc(O)c3)C[C@@H]2C)c1 [Example 17, N,N-Diethyl-3-((R)-((2S,5R)-2,5-dimethyl-4-(3-hydroxybenzyl)piperazin-1-yl)(3-hydroxyphenyl)methyl)benzamide] |  |  | 2.9 | 50 | 1 | Ki [2]: 1.28 nM; Ki [3, 7]: 0.66 nM; Ki [4, 8]: 20.9 nM
CCN(CC)C(=O)c1ccc([C@H](c2cccc(OC)c2)N2C[C@@H](C)N(Cc3ccc(F)cc3)C[C@@H]2C)cc1 [Example 29, 4-((alpha-R)-alpha-((2S,5R)-2,5-Dimethyl-4-(4-fluorobenzyl)-1-piperazinyl)-3-methoxybenzyl)-N,N-diethylbenzamide] | 3 | 38 |  |  |  | 
CCN(CC)C(=O)c1ccc([C@H](c2cccc(O)c2)N2C[C@@H](C)N(Cc3cccc(F)c3)C[C@@H]2C)cc1 [Example 36, 4-((alpha-R)-alpha-((2S,5R)-2,5-Dimethyl-4-(3-fluorobenzyl)-1-piperazinyl)-3-hydroxybenzyl)-N,N-diethylbenzamide] | 3 | 60 |  |  |  | 
CCN(CC)C(=O)c1ccc([C@H](c2ccccc2)N2C[C@@H](C)N(Cc3ccc(O)cc3)C[C@@H]2C)cc1 [Example 37, 4-((alpha-S)-alpha-((2S,5R)-2,5-Dimethyl-4-(4-hydroxybenzyl)-1-piperazinyl)-benzyl)-N,N-diethylbenzamide] | 3 | 50 |  |  |  | 
CCN(CC)C(=O)c1ccc([C@H](c2cccc(OC)c2)N2C[C@@H](C)N(Cc3ccccc3)C[C@@H]2C)cc1 [Example 38] | 3 | 33 |  |  |  | 
CCN(CC)C(=O)c1ccc([C@H](c2cccc(OC)c2)N2C[C@@H](C)N(Cc3ccccc3F)C[C@@H]2C)cc1 [Example 39, 4-((alpha-R)-alpha-((2S,5R)-2,5-Dimethyl-4-(2-fluorobenzyl)-1-piperazinyl)-3-methoxybenzyl)-N,N-diethylbenzamide] | 10 | 50 |  |  |  | 
C=CCN1C[C@@H](C)N([C@H](c2ccc(S(=O)(=O)N(C)C)cc2)c2cccc(O)c2)C[C@@H]1C [Example 40, 4-[(R)-((2R,5S)-4-Allyl-2,5-dimethylpiperazin-1-yl)(3-hydroxyphenyl)methyl]-N,N-dimethylbenzenesulfonamide] | 0.3 | 50 |  |  |  | 
CCN(CC)C(=O)c1ccc([C@H](c2ccccc2)N2C[C@H](C)N(Cc3cccc(F)c3)C[C@H]2C)cc1 [Example 41, 4-((alpha-S)-alpha-((2R,5S)-2,5-Dimethyl-4-(3-fluorobenzyl)-1-piperazinyl)benzyl)-N,N-diethylbenzamide] | 0.4 | 75 |  |  |  | 
Oc1ccc2c3c1O[C@H]1c4[nH]c5ccccc5c4C[C@@]4(O)[C@@H](C2)N(CC2CC2)CC[C@]314 [NTI, naltrindole, reference compound] |  |  |  |  |  | ejaculation response, antagonist alone ([1]; 0.1 mg/kg subcutaneous, 35 Hz, FIG. 4): did not affect the ejaculation response
C=CCN1C[C@H](C)N([C@H](c2ccc(C(=O)N(CC)CC)cc2)c2cccc(OC)c2)C[C@H]1C [SNC-80, reference compound] |  |  |  |  |  | inhibitory effect on ejaculation at reduced dose ([1]; 0.1 mg/kg subcutaneous, 40 Hz, FIG. 3): inhibitory effect diminished; inhibitory effect on ejaculation with co-injected antagonist ([1]; 0.5 mg/kg SNC-80 plus 0.1 mg/kg NTI subcutaneous, 35 Hz, FIG. 4): abolished; also recorded: inhibitory effect was blocked; reduction of ejaculation (factor) ([1]; 0.5 mg/kg subcutaneous, 35 Hz, 10 minutes after injection, FIG. 4): at least 2; occurrence of ejaculation versus control group ([1]; 1 mg/kg subcutaneous, 40 Hz, 10 minutes after injection, FIG. 3): significantly reduced the occurrence of ejaculation; contraction of mouse vas deferens smooth muscle in vitro [6]: block the contraction of mouse vas deferens smooth muscle in vitro

— patent publication US8865721B2, “Delta opioid receptor agonist compounds” (priority 2001, dated 2014)
